Measured values taken from PMC8067721 (Pharmaceutics, 2021).

Columns and labels:
HT-29 cells = tested on: HT-29 cells; parameters: method as in PMID 9023294; conditions: cited from earlier work
[1] = tested on: NT receptors (NTRS1, NTRS2, NTRS3) on HT-29 cells; experiment: In vitro specific binding / competition assay with all NT receptors blocked; parameters: species or system human; conditions: antagonists applied together: 70 nM NTRC 824, 30 nM SR 48692, 10 nM SR 142948, […]; uptake profile almost linear
Description: In order to evaluate the specific binding due to the exclusive interaction of the peptide with its receptors, a competition assay was performed. This assay in which all NT receptors are blocked before incubating the labelled peptide is intended to highlight non-specific binding of NT to the cells. […] For this assessment, three different NT receptors antagonists were used, each having a preferential increased affinity for one of the receptors, allowing the blocking of all NTRs at the same time:
Afterwards, the medium containing unbound antagonists was removed and the cells were washed with 2 mL of fresh DMEM medium.

NTRS2 = tested on: NTRS2; parameters: method as in PMID 25157640; conditions: cited from earlier work

| Molecule | inhibition of [^125I]ITyr^3-NT specific binding to HT-29 cells (HT-29 cells) | effect of antagonists on ^68Ga-DOTA-NT binding to colon HT-29 tumour cells [1] | selectivity for NTRS2 over NTRS1 (NTRS2) |
| --- | --- | --- | --- |
| 2-[[5-(2,6-dimethoxyphenyl)-1-(4-(N-(3-dimethylaminopropyl)-N-methylcabamoyl)-2-isopropylphenyl)-1H-pyrazole-3-carbonyl]amino]adamantane-2-carboxylic acid [SR 142948] | completely inhibits | inhibit |  |
| Cc1ccc(S(=O)(=O)Nc2ccc3c(c2)c(C(=O)C(F)(F)F)cn3CC(=O)N[C@@H](CC(C)C)C(=O)O)cc1 [NTRC 824, N-[2-[5-[[(4-Methylphenyl)sulfonyl]amino]-3-(trifluoroacetyl)-1H-indol-1-yl]acetyl]-L-leucine] |  | inhibit | 150 fold |
| COc1cccc(OC)c1-c1cc(C(=O)NC2(C(=O)O)C3CC4CC(C3)CC2C4)nn1-c1ccnc2cc(Cl)ccc12 (centres unmarked) [SR 48692, 2-[[1-(7-chloroquinolin-4-yl)-5-(2,6-dimethoxyphenyl)-1H-pyrazol-3-carbonyl]amino] adamantane-2-carboxylic acid] |  | inhibit |  |
